The IC50 is the point on the concentration scale where inhibition reaches its midpoint.

These results are taken from article PMC3429506, “Screening for Novel LRRK2 Inhibitors Using a High-Throughput TR-FRET Cellular Assay for LRRK2 Ser935 Phosphorylation” (PLoS ONE, 2012).

In one experiment the target is LRRK2 G2019S (Homo sapiens, UniProt Q5S007, G2019S). The experiment in a line: TR-FRET cellular assay for LRRK2 Ser935 phosphorylation, human neural stem cells, BacMam LRRK2-GFP G2019S. It counts as cell-based. Set-up: This high-throughput assay utilizes cells expressing full-length human LRRK2 with a C-terminal GFP tag (LRRK2-GFP); host or cells: U-2 OS, SH-SY5Y, HEK293T cells or human neural stem cells transduced with BacMam. Conditions: 10% BacMam G2019S, 90 min, Figure 4, read-out: IC50, inhibition of G2019S Ser935 phosphorylation via TR-FRET. On the procedure: (§1) U-2 OS cells are maintained in growth medium (McCoy’s 5A supplemented with 10% dialyzed FBS (dFBS), 10 mM HEPES, 0.1 mM NEAA, 1 mM Sodium Pyruvate, and 100 U/mL Penicillin/100 µg/mL Streptomycin). HEK293T cells are maintained in DMEM with 10% dFBS, 10 mM HEPES, 0.1 mM NEAA and 100 U/mL Penicillin/100 µg/mL Streptomycin. SH-SY5Y cells are maintained in DMEM/F-12 medium supplemented with 10% dFBS and 100 U/mL Penicillin/100 µg/mL Streptomycin. […] GIBCO® human neural stem cells (hNSCs) were propagated as an adherent culture in StemPro® NSC SFM according to the manufacturer’s recommended protocol (Life Technologies). For BacMam transduction of U-2 OS and HEK293T, cells were harvested, mixed with various amounts of BacMam LRRK2-GFP reagent (v/v) and plated onto 6-well plates. […] Cells were assayed in 384-well format (∼20,000 cells/well) 48 hours post-transduction as above.
Transduced cells in the 384-well assay plate were incubated with indicated inhibitors (5X, 5 µL/well) for 60 to 90 minutes. During this time, 6 X lysis buffer (Life Technologies) was supplemented with 30 nM Tb-labeled anti-LRRK2 pSer935 antibody and both protease and phosphatase inhibitor cocktails (Sigma). […] Z′-factor values were calculated as: Z′-factor = 1 - [(3 × stdevno virus +3 × stdevmaxvirus)/(avgmaxvirus – avgno-virus)]. […]
A general note: Time-resolved FRET reads energy transfer from a long-lived donor to a nearby acceptor.

The target in experiment [1] is T1, LRRK2 wild-type (Homo sapiens, UniProt Q5S007). In words: TR-FRET cellular assay for LRRK2 Ser935 phosphorylation, HEK293T cells, BacMam LRRK2-GFP wild-type. Conditions: WT, +/- SD, three independent experiments, * = partial inhibition, read-out: IC50, TR-FRET cell-based assay for Ser935 phosphorylation of LRRK2. More on the design: This high-throughput assay utilizes cells expressing full-length human LRRK2 with a C-terminal GFP tag (LRRK2-GFP); host or cells: HEK293T cells transduced with BacMam. The procedure:
as §1
(§2) Transduced cells in the 384-well assay plate were incubated with indicated inhibitors (5X, 5 µL/well) for 60 to 90 minutes. During this time, 6 X lysis buffer (Life Technologies) was supplemented with 30 nM Tb-labeled anti-LRRK2 pSer935 antibody and both protease and phosphatase inhibitor cocktails (Sigma). The complete 6 X lysis buffer was added to each well (5 µL/well) and the plates were incubated at room temperature in the dark for 2 hours. […] A sigmoidal dose-response equation with varying slope was used to fit the data and generate IC50 values. Z′-factor values were calculated as: Z′-factor = 1 - [(3 × stdevno virus +3 × stdevmaxvirus)/(avgmaxvirus – avgno-virus)]. The IC50 values reported in Table 1 are the averaged numbers from three independent experiments.

For experiment [2], the target named is T1, LRRK2 wild-type. In words: TR-FRET cellular assay for LRRK2 Ser935 phosphorylation, U-2 OS cells, BacMam LRRK2-GFP wild-type. It counts as cell-based. Set-up: This high-throughput assay utilizes cells expressing full-length human LRRK2 with a C-terminal GFP tag (LRRK2-GFP); host or cells: U-2 OS cells transduced with BacMam. The procedure: as §1, §2
Experiment [3] has as its system LRRK2-GFP. In words: Western blot analysis of LRRK2-GFP phosphorylation in BacMam transduced U-2 OS cells. It counts as cell-based, human. The conditions noted are these: LRRK2-IN-1 3 µM 90 min, wild-type, G2019S, R1441C, Figure 1B. On the procedure:
(§3) Immunoblot analysis: BacMam LRRK2-GFP transduced U-2 OS or SH-SY5Y cells (10^7 cells) were left untreated or treated with 3 µM LRRK2-IN-I for 90 min. For lysate preparation, the cells were washed once with ice-cold PBS and lysed by addition of ice-cold lysis buffer (20 mM Tris-HCl, pH 7.4, 1% NP-40, 5 mM EDTA, 5 mM NaF, 150 mM NaCl, and 1∶100 of protease and phosphatase inhibitor cocktails). The lysate was cleared of debris by centrifugation. Equal amount of total protein was loaded onto each lane for SDS-PAGE (3–8% Tris Acetate). The proteins were transferred onto nitrocellulose membrane using the iBLOT® dry blotting system (Life Technologies) according to manufacturer’s protocol. The membranes were blocked and incubated with a primary antibody against LRRK2 (Cell Signaling Technologies), followed by incubation with alkaline phosphatase-conjugated secondary antibody (WesternBreeze® chromogenic Kit, Life Technologies). The blot was developed by using the chromogenic BCIP/NBT substrate (WesternBreeze® chromogenic Kit, Life Technologies). […]

Experiment [4] deals with T2, LRRK2-GFP (Homo sapiens, UniProt Q5S007, G2019S).
T2 construct: GFP is fused to the C-terminus of full-length human LRRK2 wild-type, G2019S, R1441C and kinase-dead D1994A; host or cells: U-2 OS cells transduced with BacMam
The experiment is described as above. The conditions noted are these: BacMam LRRK2-GFP G2019S, 10 µM, Figure S1. It is filed as cell-based. The procedure:
as §3

The structures appear in SMILES notation.

T1 sequence (Q5S007 whole entry): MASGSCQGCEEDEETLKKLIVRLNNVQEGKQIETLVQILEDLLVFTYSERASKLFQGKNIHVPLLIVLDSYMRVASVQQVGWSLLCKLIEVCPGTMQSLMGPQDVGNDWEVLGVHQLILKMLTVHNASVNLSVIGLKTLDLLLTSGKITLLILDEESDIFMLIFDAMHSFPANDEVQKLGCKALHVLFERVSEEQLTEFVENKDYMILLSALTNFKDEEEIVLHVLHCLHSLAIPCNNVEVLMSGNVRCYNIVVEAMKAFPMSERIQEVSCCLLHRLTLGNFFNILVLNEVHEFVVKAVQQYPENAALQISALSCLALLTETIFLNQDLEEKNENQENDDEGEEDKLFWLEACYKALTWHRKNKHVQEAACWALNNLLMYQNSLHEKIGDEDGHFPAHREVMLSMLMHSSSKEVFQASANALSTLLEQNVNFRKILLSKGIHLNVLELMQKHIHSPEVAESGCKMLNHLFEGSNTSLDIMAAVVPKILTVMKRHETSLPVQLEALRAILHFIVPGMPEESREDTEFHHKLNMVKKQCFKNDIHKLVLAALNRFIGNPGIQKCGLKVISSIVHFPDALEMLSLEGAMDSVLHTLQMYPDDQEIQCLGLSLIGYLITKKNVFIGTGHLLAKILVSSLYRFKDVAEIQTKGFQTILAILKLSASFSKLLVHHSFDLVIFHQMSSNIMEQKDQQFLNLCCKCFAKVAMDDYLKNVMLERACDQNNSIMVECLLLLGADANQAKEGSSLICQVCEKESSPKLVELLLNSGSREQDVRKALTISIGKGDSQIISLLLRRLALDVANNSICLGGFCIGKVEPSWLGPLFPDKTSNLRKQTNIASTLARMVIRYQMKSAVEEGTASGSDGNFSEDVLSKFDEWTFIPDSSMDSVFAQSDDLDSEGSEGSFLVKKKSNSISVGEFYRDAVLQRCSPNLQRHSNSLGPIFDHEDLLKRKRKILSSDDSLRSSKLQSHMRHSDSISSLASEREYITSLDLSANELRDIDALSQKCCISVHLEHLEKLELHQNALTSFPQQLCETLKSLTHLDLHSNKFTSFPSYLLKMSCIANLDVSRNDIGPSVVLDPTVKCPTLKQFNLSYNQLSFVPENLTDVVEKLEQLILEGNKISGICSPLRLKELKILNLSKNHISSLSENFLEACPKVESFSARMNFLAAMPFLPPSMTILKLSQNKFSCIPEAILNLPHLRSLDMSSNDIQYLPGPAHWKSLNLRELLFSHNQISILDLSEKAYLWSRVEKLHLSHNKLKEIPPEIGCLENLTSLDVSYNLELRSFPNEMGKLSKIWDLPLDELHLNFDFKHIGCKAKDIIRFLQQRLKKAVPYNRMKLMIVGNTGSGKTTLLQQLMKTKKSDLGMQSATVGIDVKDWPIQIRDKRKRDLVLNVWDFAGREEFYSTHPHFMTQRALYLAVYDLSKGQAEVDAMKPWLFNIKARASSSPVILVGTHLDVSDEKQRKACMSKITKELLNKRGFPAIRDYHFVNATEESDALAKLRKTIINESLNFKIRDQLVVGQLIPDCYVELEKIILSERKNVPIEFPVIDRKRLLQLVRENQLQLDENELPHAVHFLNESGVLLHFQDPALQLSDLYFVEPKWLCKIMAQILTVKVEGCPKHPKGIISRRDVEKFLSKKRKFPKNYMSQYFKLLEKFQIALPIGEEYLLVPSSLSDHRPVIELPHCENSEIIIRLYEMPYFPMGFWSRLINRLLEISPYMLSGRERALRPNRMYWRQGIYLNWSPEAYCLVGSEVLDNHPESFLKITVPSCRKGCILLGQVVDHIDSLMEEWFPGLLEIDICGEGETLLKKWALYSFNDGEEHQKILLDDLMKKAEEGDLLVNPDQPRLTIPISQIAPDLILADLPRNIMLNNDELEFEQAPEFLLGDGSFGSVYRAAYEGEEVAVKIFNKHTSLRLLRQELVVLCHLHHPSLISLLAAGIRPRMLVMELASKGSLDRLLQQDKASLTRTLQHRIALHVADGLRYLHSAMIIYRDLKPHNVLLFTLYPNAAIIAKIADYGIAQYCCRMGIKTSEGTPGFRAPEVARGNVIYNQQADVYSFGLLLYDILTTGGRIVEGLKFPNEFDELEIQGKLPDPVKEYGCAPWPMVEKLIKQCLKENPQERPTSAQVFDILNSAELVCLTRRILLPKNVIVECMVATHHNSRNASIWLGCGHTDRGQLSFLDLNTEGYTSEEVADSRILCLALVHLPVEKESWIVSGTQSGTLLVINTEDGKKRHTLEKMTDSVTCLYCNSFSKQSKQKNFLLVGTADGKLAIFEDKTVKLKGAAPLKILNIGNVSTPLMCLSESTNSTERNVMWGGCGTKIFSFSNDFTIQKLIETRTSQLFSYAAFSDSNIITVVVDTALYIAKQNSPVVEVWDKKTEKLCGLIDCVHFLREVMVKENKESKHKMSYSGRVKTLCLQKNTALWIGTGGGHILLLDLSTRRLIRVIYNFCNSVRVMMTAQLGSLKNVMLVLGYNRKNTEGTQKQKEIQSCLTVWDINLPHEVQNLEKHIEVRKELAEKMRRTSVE
T2 sequence (Q5S007 whole entry G2019S, the tested form may be a part): as the sequence (Q5S007 whole entry) above, with G2019S counted along it
Chain of LRRK2 G2019S (Q5S007 whole entry G2019S): as the sequence (Q5S007 whole entry) above, with G2019S counted along it

As to `COc1cc(C(=O)N2CCC(N3CCN(C)CC3)CC2)ccc1Nc1ncc2c(n1)N(C)c1ccccc1C(=O)N2C` [LRRK2-IN-1], the IC50 on LRRK2 G2019S was 30 nM; on LRRK2 wild-type [1] it was 120 nM; on LRRK2 wild-type [2] (20% BacMam wild-type, 90 min, Figure 2B, read-out: IC50, inhibition of TR-FRET signal (Ser935 phosphorylation)) it was 80 nM; at LRRK2 wild-type [2] (WT, +/- SD, three independent experiments, * = partial inhibition, read-out: IC50, TR-FRET cell-based assay for Ser935 phosphorylation of LRRK2), 90 nM. The “Ser935 phosphorylation by Western blot” value in the experiment with LRRK2-GFP [3] was “diminished”. For the same molecule, the “phosphorylation at Ser910, Ser935, Ser955 and Ser973 by immunoblot” value on LRRK2-GFP [4] was “responsive to LRRK2-IN-1 treatment”.
